This is an account of results in ChEMBL document CHEMBL5528016, “Design, synthesis and evaluation of novel deferasirox derivatives with high antifungal potency in vitro and in vivo” (Eur J Med Chem, 2024).

SMILES strings stand for the structures. In brackets after ≈: the same amount, converted by molar mass. Bounds are passed on as bounds.

The subject of the first assay is Cryptococcus neoformans. Kind of assay: Antifungal activity against Cryptococcus neoformans H99 assessed as reduction in fungal growth incubated for 72 hrs by broth microdilution method. It is filed as functional.
Conditions: not given
`O=C(NCCO)c1ccc(-n2nc(-c3ccccc3O)nc2-c2ccccc2O)cc1`: the MIC was 4 µg/mL (≈ 9.61 µM).

`O=C(O)c1cccc(-n2nc(-c3ccccc3O)nc2-c2ccccc2O)c1`: the minimal inhibitory concentration (MIC) came to 4 µg/mL (≈ 10.7 µM).

For `CCCNC(=O)c1ccc(-n2nc(-c3ccccc3O)nc2-c2ccccc2O)cc1`, the MIC is 4 µg/mL (≈ 9.65 µM).

Take `O=C(NCC(=O)N1CCOCC1)c1ccc(-n2nc(-c3ccccc3O)nc2-c2ccccc2O)cc1`: the MIC came out at 1 µg/mL (≈ 2 µM).

Turning to `COC(=O)CCNC(=O)c1ccc(-n2nc(-c3ccccc3O)nc2-c2ccccc2O)cc1`, the minimum inhibitory concentration (MIC) worked out at 0.5 µg/mL (≈ 1.09 µM).

For `CN1CCOC(CNC(=O)c2ccc(-n3nc(-c4ccccc4O)nc3-c3ccccc3O)cc2)C1` (centres undefined), the minimal inhibitory concentration (MIC) came out at 0.5 µg/mL (≈ 1.03 µM).

In the case of `O=C(NCc1ccccn1)c1ccc(-n2nc(-c3ccccc3O)nc2-c2ccccc2O)cc1`, the MIC is 8 µg/mL (≈ 17.3 µM).

Consider `O=C(NCc1ccncc1)c1ccc(-n2nc(-c3ccccc3O)nc2-c2ccccc2O)cc1`, for which the MIC stood at 4 µg/mL (≈ 8.63 µM).

For `O=C(c1ccc(-n2nc(-c3ccccc3O)nc2-c2ccccc2O)cc1)N1CCC(O)CC1`, the MIC came out at 4 µg/mL (≈ 8.76 µM).

Take `CCOCCNC(=O)c1ccc(-n2nc(-c3ccccc3O)nc2-c2ccccc2O)cc1`: the MIC turned out to be 1 µg/mL (≈ 2.25 µM).

Turning to `O=C(NC1CS(=O)(=O)C1)c1ccc(-n2nc(-c3ccccc3O)nc2-c2ccccc2O)cc1`, the MIC worked out at 1 µg/mL (≈ 2.1 µM).

`O=C(NCCNc1ncccn1)c1ccc(-n2nc(-c3ccccc3O)nc2-c2ccccc2O)cc1`: the minimum inhibitory concentration (MIC) was 0.5 µg/mL (≈ 1.01 µM).

As to `O=C(NNCc1ccccc1)c1ccc(-n2nc(-c3ccccc3O)nc2-c2ccccc2O)cc1`, the MIC was determined as 8 µg/mL (≈ 16.8 µM).

Turning to `CNC(=O)c1ccc(-n2nc(-c3ccccc3O)nc2-c2ccccc2O)cc1`, the MIC was 1 µg/mL (≈ 2.59 µM).

Consider `O=C1CC(NC(=O)c2ccc(-n3nc(-c4ccccc4O)nc3-c3ccccc3O)cc2)CN1` (centres undefined), for which the minimum inhibitory concentration (MIC) worked out at 4 µg/mL (≈ 8.78 µM).

`O=C(NNc1ccccc1)c1ccc(-n2nc(-c3ccccc3O)nc2-c2ccccc2O)cc1`: the minimum inhibitory concentration (MIC) worked out at 2 µg/mL (≈ 4.32 µM).

As for `CN(C)CCNC(=O)c1ccc(-n2nc(-c3ccccc3O)nc2-c2ccccc2O)cc1`, the MIC is 4 µg/mL (≈ 9.02 µM).

For the compound `O=C(NN1CCOCC1)c1ccc(-n2nc(-c3ccccc3O)nc2-c2ccccc2O)cc1`, the MIC stood at 2 µg/mL (≈ 4.37 µM).

As to `O=C(NCCN1CCOCC1)c1cccc(-n2nc(-c3ccccc3O)nc2-c2ccccc2O)c1`, the MIC came to 1 µg/mL (≈ 2.06 µM).

For `Cc1nccn1CCCNC(=O)c1ccc(-n2nc(-c3ccccc3O)nc2-c2ccccc2O)cc1`, the MIC was found to be 8 µg/mL (≈ 16.2 µM).

As for `O=C1C[C@H](NC(=O)c2ccc(-n3nc(-c4ccccc4O)nc3-c3ccccc3O)cc2)CO1`, the MIC is greater than 64 µg/mL.

As to `O=C(NCCCN1CCOCC1)c1ccc(-n2nc(-c3ccccc3O)nc2-c2ccccc2O)cc1`, the minimum inhibitory concentration (MIC) amounted to 1 µg/mL (≈ 2 µM).

As to `COCCCNC(=O)c1ccc(-n2nc(-c3ccccc3O)nc2-c2ccccc2O)cc1`, the MIC came to 4 µg/mL (≈ 9 µM).

Take `O=C(NCCOc1ccccn1)c1ccc(-n2nc(-c3ccccc3O)nc2-c2ccccc2O)cc1`: the MIC was 4 µg/mL (≈ 8.1 µM).

As for `O=C1C[C@@H](NC(=O)c2ccc(-n3nc(-c4ccccc4O)nc3-c3ccccc3O)cc2)CO1`, the MIC is greater than 64 µg/mL.

Turning to `O=C(NCCc1ccccc1)c1ccc(-n2nc(-c3ccccc3O)nc2-c2ccccc2O)cc1`, the MIC came out at 8 µg/mL (≈ 16.8 µM).

For `O=C(NCc1ccccc1)c1ccc(-n2nc(-c3ccccc3O)nc2-c2ccccc2O)cc1`, the MIC is 4 µg/mL (≈ 8.65 µM).

`O=C(NCCc1ccccn1)c1ccc(-n2nc(-c3ccccc3O)nc2-c2ccccc2O)cc1`: the MIC turned out to be 0.5 µg/mL (≈ 1.05 µM).

On to `O=C(Nc1ccccc1)c1ccc(-n2nc(-c3ccccc3O)nc2-c2ccccc2O)cc1`, for which the MIC is 4 µg/mL (≈ 8.92 µM).

The subject of a further assay is Candida albicans. Kind of assay: Antifungal activity against Candida albicans SC5314 assessed as reduction in fungal growth incubated for 72 hrs by broth microdilution method. It is filed as functional.
Conditions: not given
Regarding `COC(=O)CCNC(=O)c1ccc(-n2nc(-c3ccccc3O)nc2-c2ccccc2O)cc1`, the minimum inhibitory concentration (MIC) is greater than 64 µg/mL.

Take `CN1CCOC(CNC(=O)c2ccc(-n3nc(-c4ccccc4O)nc3-c3ccccc3O)cc2)C1` (centres undefined): the MIC was 2 µg/mL (≈ 4.12 µM).

On to `O=C(NCCNc1ncccn1)c1ccc(-n2nc(-c3ccccc3O)nc2-c2ccccc2O)cc1`, for which the minimum inhibitory concentration (MIC) was determined as 32 µg/mL (≈ 64.8 µM).

In the case of `O=C(NCCc1ccccn1)c1ccc(-n2nc(-c3ccccc3O)nc2-c2ccccc2O)cc1`, the MIC came to 32 µg/mL (≈ 67 µM).

Another assay deals with Candida parapsilosis. Kind of assay: Antifungal activity against Candida parapsilosis ATCC 22019 assessed as reduction in fungal growth incubated for 72 hrs by broth microdilution method. It is filed as functional. To be noted: Lodderomyces parapsilosis.
For the compound `COC(=O)CCNC(=O)c1ccc(-n2nc(-c3ccccc3O)nc2-c2ccccc2O)cc1`, the minimal inhibitory concentration (MIC) is greater than 64 µg/mL.

For `CN1CCOC(CNC(=O)c2ccc(-n3nc(-c4ccccc4O)nc3-c3ccccc3O)cc2)C1` (centres undefined), the MIC turned out to be 32 µg/mL (≈ 65.9 µM).

As to `O=C(NCCNc1ncccn1)c1ccc(-n2nc(-c3ccccc3O)nc2-c2ccccc2O)cc1`, the MIC is greater than 64 µg/mL.

Take `O=C(NCCc1ccccn1)c1ccc(-n2nc(-c3ccccc3O)nc2-c2ccccc2O)cc1`: the MIC was greater than 64 µg/mL.

For the next assay, the system named is Candida tropicalis. Kind of assay: Antifungal activity against Candida tropicalis 2718 assessed as reduction in fungal growth incubated for 72 hrs by broth microdilution method. It is filed as functional.
Conditions: not given
For `COC(=O)CCNC(=O)c1ccc(-n2nc(-c3ccccc3O)nc2-c2ccccc2O)cc1`, the minimum inhibitory concentration (MIC) came out at 0.125 µg/mL (≈ 0.273 µM).

With `CN1CCOC(CNC(=O)c2ccc(-n3nc(-c4ccccc4O)nc3-c3ccccc3O)cc2)C1` (centres undefined), the MIC came to 1 µg/mL (≈ 2.06 µM).

Consider `O=C(NCCNc1ncccn1)c1ccc(-n2nc(-c3ccccc3O)nc2-c2ccccc2O)cc1`, for which the minimal inhibitory concentration (MIC) came to 8 µg/mL (≈ 16.2 µM).

As for `O=C(NCCc1ccccn1)c1ccc(-n2nc(-c3ccccc3O)nc2-c2ccccc2O)cc1`, the minimum inhibitory concentration (MIC) was 64 µg/mL (≈ 134 µM).

The test system of another assay is Nakaseomyces glabratus. Kind of assay: Antifungal activity against Candida glabrata 537 assessed as reduction in fungal growth incubated for 72 hrs by broth microdilution method. It is filed as functional.
Conditions: not given
Consider `COC(=O)CCNC(=O)c1ccc(-n2nc(-c3ccccc3O)nc2-c2ccccc2O)cc1`, for which the MIC is less than 0.125 µg/mL.

Take `CN1CCOC(CNC(=O)c2ccc(-n3nc(-c4ccccc4O)nc3-c3ccccc3O)cc2)C1` (centres undefined): the MIC is less than 0.125 µg/mL.

`O=C(NCCNc1ncccn1)c1ccc(-n2nc(-c3ccccc3O)nc2-c2ccccc2O)cc1`: the minimal inhibitory concentration (MIC) stood at 1 µg/mL (≈ 2.03 µM).

As to `O=C(NCCc1ccccn1)c1ccc(-n2nc(-c3ccccc3O)nc2-c2ccccc2O)cc1`, the MIC is less than 0.125 µg/mL.

For another assay, the system named is Pichia kudriavzevii. Kind of assay: Antifungal activity against Pichia kudriavzevii 4946 assessed as reduction in fungal growth incubated for 72 hrs by broth microdilution method.
Conditions: not given
It is filed as functional.
As to `COC(=O)CCNC(=O)c1ccc(-n2nc(-c3ccccc3O)nc2-c2ccccc2O)cc1`, the minimal inhibitory concentration (MIC) stood at 4 µg/mL (≈ 8.72 µM).

`CN1CCOC(CNC(=O)c2ccc(-n3nc(-c4ccccc4O)nc3-c3ccccc3O)cc2)C1` (centres undefined): the MIC turned out to be 4 µg/mL (≈ 8.24 µM).

With `O=C(NCCNc1ncccn1)c1ccc(-n2nc(-c3ccccc3O)nc2-c2ccccc2O)cc1`, the MIC was found to be 16 µg/mL (≈ 32.4 µM).

On to `O=C(NCCc1ccccn1)c1ccc(-n2nc(-c3ccccc3O)nc2-c2ccccc2O)cc1`, for which the minimum inhibitory concentration (MIC) came out at 4 µg/mL (≈ 8.38 µM).

The subject of a further assay is [Candida] auris. Kind of assay: Antifungal activity against Candida auris D12 assessed as reduction in fungal growth incubated for 72 hrs by broth microdilution method. The conditions noted are these: Candidozyma auris. It is filed as functional.
In the case of `COC(=O)CCNC(=O)c1ccc(-n2nc(-c3ccccc3O)nc2-c2ccccc2O)cc1`, the minimal inhibitory concentration (MIC) was greater than 64 µg/mL.

As to `CN1CCOC(CNC(=O)c2ccc(-n3nc(-c4ccccc4O)nc3-c3ccccc3O)cc2)C1` (centres undefined), the minimal inhibitory concentration (MIC) was greater than 64 µg/mL.

Take `O=C(NCCNc1ncccn1)c1ccc(-n2nc(-c3ccccc3O)nc2-c2ccccc2O)cc1`: the minimal inhibitory concentration (MIC) was greater than 64 µg/mL.

In the case of `O=C(NCCc1ccccn1)c1ccc(-n2nc(-c3ccccc3O)nc2-c2ccccc2O)cc1`, the MIC is greater than 64 µg/mL.

For another assay, the system named is Cryptococcus neoformans. Kind of assay: Potency index, ratio of deferasirox MIC to test compound for antifungal activity against Cryptococcus neoformans H99 incubated for 72 hrs by broth microdilution method. It is filed as functional.
Conditions: not given
As for `COC(=O)CCNC(=O)c1ccc(-n2nc(-c3ccccc3O)nc2-c2ccccc2O)cc1`, the Ratio is reported as 4.
